Values joined by “and” are separate entries in the source; they are usually repeats but may differ in a detail not shown here. Identical values can stand only once.
Tests used:
MN9D cells [1] = assay: Cell viability, MTT reduction, MPP+-treated MN9D cells; assay type: cell-based, mouse
Procedure: Cell viability was determined using 3-(4,5-dimethylthiazol-2-yl)-2,5-diphenyltetrazolium bromide (MTT) as previously described[60]. Briefly, cells were incubated with 5 mg/ml of MTT (Sigma-Aldrich) solution for 3.5 h at 37 °C. MTT formazan crystals were dissolved in 10 times the volume of MTT solvent (4 mM HCl and 0.1% Nonidet P-40 in isopropanol) and the absorbance from the generated blue formazan was measured at 570 nm after 15 min incubation at room temperature. Cell viability was calculated as a percentage (%) of MTT reduction relative to vehicle control.

MN9D cells [2] = assay: Dopaminergic gene expression (TH, DAT, AADC, VMAT2, c-Ret), qRT-PCR, MN9D cells with MPP+; assay type: cell-based, mouse; conditions: MN9D, decreased by MPP+
Procedure: (§1) Total RNA was extracted using the GeneJET RNA Purification Kit (Thermo Fisher Scientific) and 100 ng of RNA was subjected to cDNA synthesis using Invitrogen Superscript cDNA Synthesis Kit (Invitrogen) according to the manufacturer’s protocol. qRT-PCR was performed using a CFX Connect Real-Time System (Bio-Rad) in a 20 μl volume mixture containing 2X SsoAdvanced Universal SYBR Green Supermix (Bio-Rad), 100 ng/μl of forward and reverse primers, and 1 μl of cDNA sample. Gene expression levels were quantified by the 2^∆∆CT method (Ct of target gene—Ct of glyceraldehyde-3-phosphate dehydrogenase (GAPDH). The following primers were used for qRT-PCR: TH forward: 5′-[…]-3′, reverse: 5′-[…]-3′; DAT forward: 5′-[…]-3′, reverse: 5′-[…]-3′; AADC forward: 5′-[…]-3′, reverse: 5′-[…]-3′; VMAT2 forward: 5′-[…]-3′, reverse: 5′-[…]-3′; c-Ret forward: 5′-[…]-3′, reverse: 5′-[…]-3′; TNFα forward: 5′-[…]-3′; reverse: 5′-[…]-3′; GAPDH, forward 5′-[…]-3′, reverse 5′-[…]-3′.

TNFα gene = assay: LPS-induced TNFα gene expression in BV2 cells, qRT-PCR; assay type: cell-based, mouse; conditions: Mus musculus, BV-2
Procedure: SK-N-BE(2)C human neuroblastoma, BV2 mouse microglia (ATCC), HeLa and MN9D cell lines were cultured in Dulbecco’s Modified Eagle Medium (DMEM) supplemented with 10% fetal bovine serum (FBS) and 100 U /ml penicillin and 100 μg /ml streptomycin. The murine MN9D dopaminergic cell line was kindly provided by Drs. Michael Zigmond and Juliann Jaumotte from the University of Pittsburgh. The N27-A rat dopaminergic cell line was kindly provided by Dr. Curt Freed from the University of Colorado School of Medicine. […] For transactivity assay, SK-N-BE(2)C and N27-A cell lines were transfected with pCMV-fNurr1, pGAL-Nurr1(LBD), pGAL-Nor1(LBD) or pGAL-Nur77(LBD) and reporter construct (p4xNL3-Luc for fNurr1 or p8xUAS-Luc for LBD constructs). pRSV-β-gal was co-transfected as an internal control. Cells were lysed in a lysis buffer (25 mM Tris-phosphate (pH 7.8), 2 mM DTT, 2 mM DCTA (1,2-diaminocyclohexane-N,N,N′,N′-tetraacetic acid), 10% glycerol, and 1% Triton X-100) 24 h after transfection, followed by adding firefly luciferase substrate for luminescence detection measured by a luminometer plate reader (SpectraMax®; Molecular device). Nurr1 transactivity was normalized to β-galactosidase activity. […] For Nurr1 stability determination, MN9D cells were incubated with MPP^+ (0.5 mM) for 2, 4, 8, 16, 24, and 32 h, or were transduced with lentivirus expressing GFP only or αSyn (wild-type or A53T) then harvested 24, 48 and 72 h after transduction. For autophagolysosome (APL) formation assay, HeLa and N27-A cells were transfected with mRFP-GFP-LC3 (Addgene) using Lipofectamine 2000 (Invitrogen). The medium was changed with starvation medium (Earle’s Balanced Salt Solution; EBSS) 24 h after transfection for autophagy induction.
as §1

N27-A cells = assay: Autophagolysosome (APL) formation assay, mRFP-GFP-LC3, N27-A cells; assay type: cell-based, rat
Procedure: HeLa and N27-A cells were transfected with tandem mRFP-GFP-LC3 (Addgene) plasmid using Lipofectamine 2000 (Invitrogen) in 24-well plates. After 24 h, cells were incubated in starvation medium (Earle’s Balanced Salt Solution, EBSS; Lonza) containing bafilomycin A1 (BafA1, 10 nM), CQ (20 µM), or 4A7C-301 (1 µM) for 6 h and then fixed with 4% formaldehyde for fluorescence detection. Images were taken using a KEYENCE microscope and red (mRFP) LC3 dots and yellow (mRFP+GFP) LC3 dots were counted from three independent wells for each treatment group. 10 cells were randomly selected and counted from each well and a total of 30 cells were analyzed for each treatment group in both HeLa and N27-A cells.

HeLa cells = assay: Autophagic flux, Western blot LC3B and p62, HeLa cells; assay type: cell-based; conditions: HeLa, LC3B-II and p62
Procedure: Experiments were confirmed by duplicate measurements of the same sample. Quantification of immunoreactive bands was performed using ImageJ software (NIH, Bethesda, MD, USA) and expressed as a relative ratio against β-actin.
The band intensities were quantified using ImageJ and normalized against β-actin.

[3] = system: AAV-αSyn-induced male mice; assay: Cylinder test, AAV-αSyn-induced PD model mice; assay type: in vivo, mouse; conditions: αSynWT and αSynA53T mice; CQ 40, 4A7C-301 5 mg/kg/day i.p.
Excerpt: Adeno-associated viruses (AAVs) expressing GFP only or αSyn (wild-type or A53T) were kindly provided by Dr. Yoon Seong Kim from the University of Central Florida. Recombinant AAV vectors were produced using modified pAAV-IRES-hrGFP (Agilent) to express wild-type and mutant human αSyn under control of the CMV promoter. Viral particles (AAV2) were produced at the University of Iowa Viral Vector Core according to standard operating procedures (https://medicine.uiowa.edu/vectorcore/). […] AAV vectors were delivered into the substantia nigra unilaterally by stereotaxic surgery.
Mice were placed in a transparent plastic cylinder (15.5 cm high, 12.7 cm diameter) with a mirror behind it. Spontaneous activity was recorded and measured as counting the number of rearing events for 3 min session. A rear was considered only when the mouse touched the wall of the cylinder with its forelimb paws while standing on its hindlimbs (vertical movement) to count meaningful physiological movements.

[4] = Figure 3b, mRFP-GFP-LC3, individual cells (30 per treatment)

For `CCN(CC)CCCC(C)Nc1ccnc2cc(Cl)ccc12` (stereo not drawn) [CQ, chloroquine], the “MTT reduction (%)” value (MN9D cells [1]; Fig. S3c, with MPP+, 1 µM) was 53.8043% and 53.2609% and 51.6304%, the “MTT reduction (%)” value (MN9D cells [1]; Fig. S3c, with MPP+, 5 µM) was 55.4348% and 56.5217% and the “MTT reduction (%)” value (MN9D cells [1]; Fig. S3c, with MPP+, 10 µM) was 57.6087% and 55.9783% and 57.0652%. For the same compound, the “MTT reduction (%)” value (MN9D cells [1]; Fig. S3c, with MPP+, 50 µM) was 61.413% and 59.7826%, the “MTT reduction (%)” value (MN9D cells [1]; Fig. S3c, with MPP+, 100 µM) was 62.5% and 61.413% and 64.6739% and the “MTT reduction (%)” value (MN9D cells [1]; Fig. S3e, MPP+, Control, CQ 100 µM, 4A7C-301 1 µM) was 62.8947% and 66.3158% and 61.0526% and 60.2632%. The “MTT reduction (%)” value (MN9D cells [1]; Fig. S3e, MPP+, Nurr1 KD, CQ 100 µM, 4A7C-301 1 µM) was 34.7368% and 29.4737% and 30.7895% and 32.6316%, the “MTT reduction (%)” value (MN9D cells [1]; Fig. S3e, MPP+, Nurr1 OE, CQ 100 µM, 4A7C-301 1 µM) was 86.0526% and 90.2105% and 84.3158% and 89.4737% and the “dopaminergic gene expression (in words)” value (MN9D cells [2]) was “significantly rescued”. For the same compound, the EC50 (TNFα gene) was ~100 nM, the “LC3 dots/cell, Red LC3 dots” value (N27-A cells; [4]) was 6 dots/cell (4×) and 7 dots/cell (5×) and 11 dots/cell (6×) and 10 dots/cell (2×) and 5 dots/cell (3×) and 15 dots/cell (2×) and 4 dots/cell (2×) and 8 dots/cell (2×) and 13 dots/cell and 17 dots/cell and 9 dots/cell and 2 dots/cell and the “LC3 dots/cell, Yellow LC3 dots” value (N27-A cells; [4]) was 25 dots/cell (2×) and 30 dots/cell (6×) and 28 dots/cell (3×) and 20 dots/cell and 17 dots/cell (3×) and 21 dots/cell (4×) and 19 dots/cell and 22 dots/cell (2×) and 23 dots/cell (2×) and 18 dots/cell (2×) and 16 dots/cell and 29 dots/cell (2×) and 31 dots/cell. For the same compound, the “autophagy process (in words)” value (N27-A cells; N27-A, EBSS, CQ 20 µM, 4A7C-301 1 µM) was “inhibits”, the “autophagic flux (in words)” value (HeLa cells) was “failed to terminate” and the “motor deficits, cylinder test (rearing) (in words)” value [3] was “partial recovery”.

Source: paper PMC10354055, “An optimized Nurr1 agonist provides disease-modifying effects in Parkinson’s disease models” (Nature Communications, 2023)
